Test results published in ChEMBL document CHEMBL1122359, “Improved delivery through biological membranes. 13. Brain-specific delivery of dopamine with a dihydropyridine in equilibrium with pyridinium salt type redox delivery system” (1983).

Tests used:
Format in all cases: functional
Rattus norvegicus [1] = species on record: Rattus norvegicus; test: Percent decrease in serum prolactin concentration in male rats
Rattus norvegicus [2] = species on record: Rattus norvegicus; test: In vitro Inhibitory activity against prolactin release in anterior pituitary from adult female rats(Charles Rivers Labs) at a concentration of 2*10e-8M
Rattus norvegicus [3] = species on record: Rattus norvegicus; test: In vitro Inhibitory activity against prolactin release in anterior pituitary from adult female rats(Charles Rivers Labs), at a concentration of 2*10e-7M
Rattus norvegicus [4] = test: In vitro Weight change in anterior pituitary after the administration of the compound

Compound | Decrease (Rattus norvegicus [1]) | Prolactin release rate (Rattus norvegicus [2]) | Prolactin release rate (Rattus norvegicus [3]) | Weight change of AP-S (Rattus norvegicus [4])
C[n+]1cccc(C(=O)NCCc2ccc(O)c(O)c2)c1.[I-] | 67% | 386 ng/mg/h | 277 ng/mg/h | 4.7 mg
CN1C=CCC(C(=O)NCCc2ccc(OC(=O)C(C)(C)C)c(OC(=O)C(C)(C)C)c2)=C1 | 79% |  |  | 
NCCc1ccc(O)c(O)c1 [DOPAMINE] |  | 355 ng/mg/h |  | 
